Converted amounts (≈) assume the structure as drawn.

A short description of series [1]: Solubility in aqueous solution (PBS pH 7.4). The series is classed as physicochemical. The following applies: phosphate buffer saline (PBS), pH 7.4, aqueous buffer, kinetic from dmso stock; PBS pH7.4, 24 h, room temperature, theoretical concentration 200 μM. The procedure:
Using a 10 mM stock solution of each compound in 100% DMSO, dilutions were prepared to a theoretical concentration of 200 μM in both phosphate buffer saline (PBS), pH7.4 and in 100% DMSO (as reference). Solutions (triplicates) were incubated at room temperature for 24 h on a shaker at 100 rpm. The solutions were then centrifugated at 13000 rpm for 30 min and the supernatant was further diluted to 2 μM in methanol. The supernatant was then analyzed by LC-MSMS. The concentration of compound in PBS supernatant was determined by comparing the MS peak area with that of the reference solution in DMSO.

Series [2] deals with T1, recombinant PDE4B1 (Homo sapiens, UniProt Q07343).
T1 construct: host or cells: Sf9 insect cells
Briefly: PDE4 inhibitory activity screening, PDE4B1 (HTRF, cAMP substrate). The series is classed as biochemical. The following applies: 40 nM cAMP, 30 minutes, room temperature. The procedure: (§1) Various concentrations of the test compounds were incubated with recombinant PDE4B1 or PDE4D2 (isolated from Sf9 cells), using 40 nM cAMP as enzyme substrate. Incubation time was set to 30 minutes. The reaction was carried out at room temperature. At the end of the incubation time, residual cAMP concentration was determined, using HTRF as detection method.
(§2) The IC50 values (concentration causing a half-maximal inhibition of control specific activity) and Hill coefficients (nH) were determined by non-linear regression analysis of the inhibition curves generated with mean replicate values using Hill equation curve fitting (Y=D+[(A−D)/(1+(C/C50)nH)], where Y=specific activity, D=minimum specific activity, A=maximum specific activity, C=compound concentration, C50=IC50 and nH=slope factor).

For series [3], the target named is T2, recombinant PDE4D2 (Homo sapiens, UniProt Q08499).
T2 construct: host or cells: Sf9 insect cells
The experiment in a line: PDE4 inhibitory activity screening, PDE4D2 (HTRF, cAMP substrate). In kind it is biochemical. The following applies: 40 nM cAMP, 30 minutes, room temperature. The procedure:
as §1, §2

A short description of series [4]: Stability assay in human plasma. The series is classed as in vitro ADME. The following applies: 1 μM compound. As for the experimental part: Compounds are incubated at a concentration of 1 μM in rat (mice/rabbit/dog/rabbit) or human plasma. Samples are taken at fixed time points and the remnant of compound is determined by LC-MS/MS after protein precipitation. Half life of the compound is expressed in minutes.

Series [5] in a line: Membrane permeability, Pampa assay. The following applies: for Papp at 5 h, 10 μM: PAMPA, pH 7.4.
Protocol: The capacity of compounds of the invention to cross a lipophilic membrane was evaluated in a Pampa assay, using an assay plate containing structured layers of phospholipids supported on a PVDF filter (Benton Dickinson). […] Each compound was tested in triplicate and was prepared as a 10 μM solution in 10 mM PBS pH=7.4 buffer containing 2% DMSO. Compounds were dosed in the donor chamber of the assay plate and incubated for 5 hours, at room temperature. Additionally, an equilibrium solution plate containing 6 μM of test compound was prepared. Test compound concentration in donor and acceptor chamber and in the equilibrium plate was quantified using HPLC-MS/MS. The subsequently calculated permeability coefficients were reported as Papp.
Series [6] in a line: Stability assay in aqueous humor. The following applies: rabbit aqueous humor, 1 μM compound. The series is classed as in vitro ADME. The procedure:
Compounds are incubated at a concentration of 1 μM in human or animal (e.g. rabbit) aqueous humor (AH). Samples are taken at fixed time points and the remnant of compound is determined by LC-MS/MS after protein precipitation.

T2 sequence (Q08499 303-809 limits assumed): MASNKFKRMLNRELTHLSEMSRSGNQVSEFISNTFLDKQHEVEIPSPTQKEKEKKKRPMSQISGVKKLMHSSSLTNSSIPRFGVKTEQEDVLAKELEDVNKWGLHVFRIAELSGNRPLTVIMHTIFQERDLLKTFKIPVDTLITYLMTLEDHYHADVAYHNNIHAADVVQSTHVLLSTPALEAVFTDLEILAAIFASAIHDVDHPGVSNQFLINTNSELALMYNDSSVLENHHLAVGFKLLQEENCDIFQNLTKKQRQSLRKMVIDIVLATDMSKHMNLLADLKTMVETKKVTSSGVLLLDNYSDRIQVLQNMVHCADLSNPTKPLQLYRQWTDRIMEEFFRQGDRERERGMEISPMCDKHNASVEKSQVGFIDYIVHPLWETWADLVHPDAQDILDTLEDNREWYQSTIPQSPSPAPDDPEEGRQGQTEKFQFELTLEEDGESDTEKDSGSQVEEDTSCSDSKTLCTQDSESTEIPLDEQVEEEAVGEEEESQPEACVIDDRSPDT
T1 sequence (Q07343 whole entry): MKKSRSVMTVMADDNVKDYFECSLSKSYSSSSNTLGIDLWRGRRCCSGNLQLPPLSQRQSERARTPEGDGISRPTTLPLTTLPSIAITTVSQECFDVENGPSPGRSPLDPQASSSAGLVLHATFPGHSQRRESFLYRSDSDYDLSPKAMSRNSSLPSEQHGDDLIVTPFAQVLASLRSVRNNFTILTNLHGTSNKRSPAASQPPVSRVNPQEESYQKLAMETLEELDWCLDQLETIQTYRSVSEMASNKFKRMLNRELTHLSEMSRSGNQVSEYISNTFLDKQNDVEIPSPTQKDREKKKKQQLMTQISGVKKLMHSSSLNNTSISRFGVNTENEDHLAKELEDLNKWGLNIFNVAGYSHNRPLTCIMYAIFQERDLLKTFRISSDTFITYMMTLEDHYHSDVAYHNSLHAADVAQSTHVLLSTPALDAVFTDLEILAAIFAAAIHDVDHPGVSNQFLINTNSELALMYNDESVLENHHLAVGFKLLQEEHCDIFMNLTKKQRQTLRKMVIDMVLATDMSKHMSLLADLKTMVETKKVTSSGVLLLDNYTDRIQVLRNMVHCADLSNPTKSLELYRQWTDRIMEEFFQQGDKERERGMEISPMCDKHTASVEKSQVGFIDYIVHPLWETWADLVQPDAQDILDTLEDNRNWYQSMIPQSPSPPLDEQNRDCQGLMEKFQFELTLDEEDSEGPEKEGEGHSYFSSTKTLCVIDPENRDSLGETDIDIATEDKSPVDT

`CCCOC(=O)CCCCOc1cc(C(=O)Nc2c(Cl)cncc2Cl)ccc1OC(F)F` [Compound 1, propyl 5-[5-{[(3,5-dichloropyridin-4-yl)amino]carbonyl}-2-(difluoromethoxy)phenoxy]pentanoate] registered a solubility at 24 h in series [1] of 10 to 100 µM (≈ 4.91 to 49.1 µg/mL). Besides, the IC50 in series [2] and in series [3] was 0.01 to 0.1 µM throughout.
As for `O=C(CCCCOc1cc(C(=O)Nc2c(Cl)cncc2Cl)ccc1OC(F)F)Oc1ccccc1` [Compound 2, phenyl 5-[5-{[(3,5-dichloropyridin-4-yl)amino]carbonyl}-2-(difluoromethoxy)phenoxy]pentanoate], the solubility at 24 h in series [1] was 10 to 100 µM (≈ 5.25 to 52.5 µg/mL). In addition, the IC50 in series [2] and in series [3] was 0.01 to 0.1 µM throughout. For the same molecule, the half-life at 1 μM in series [4] is below 15 min.
In turn, `O=C(CCCCOc1cc(C(=O)Nc2c(Cl)cncc2Cl)ccc1OC(F)F)Oc1ccccc1F` [Compound 3] gave a solubility at 24 h in series [1] below 10 µM. Also, the IC50 in series [2] lay in the range of 0.01 to 0.1 µM; in series [3] it was 0.1 to 0.5 µM. The molecule also yielded a half-life at 1 μM in series [4] below 15 min.
As for `O=C(CCCCOc1cc(C(=O)Nc2c(Cl)cncc2Cl)ccc1OC(F)F)OCc1ccccc1` [Compound 4], in series [1], the solubility at 24 h is below 10 µM. The IC50 in series [2] was in the range of 0.01 to 0.1 µM; in series [3], 0.1 to 0.5 µM.
`O=C(CCCCOc1cc(C(=O)Nc2c(Cl)cncc2Cl)ccc1OC(F)F)OCCN1CCOCC1` [Compound 5] displayed a solubility at 24 h in series [1] above 100 µM. The IC50 in series [2] and in series [3] was below 0.01 µM throughout. In series [4], the half-life at 1 μM is 15 to 60 min.
As for `O=C(CCCCOc1cc(C(=O)Nc2c(Cl)cncc2Cl)ccc1OC(F)F)OCC1CCCO1` (stereo not shown) [Compound 6], the IC50 in series [2] was below 0.01 µM; in series [3] it was 0.01 to 0.1 µM. The molecule further gave a half-life at 1 μM in series [4] of 15 to 60 min.
`COCCOC(=O)CCCCOc1cc(C(=O)Nc2c(Cl)cncc2Cl)ccc1OC(F)F` [Compound 7] had a solubility at 24 h in series [1] above 100 µM. Also, the Papp at 5 h, 10 μM in series [5] turned out to be 9.2 ×10⁻⁶ cm/s. Moreover, the figures for the IC50 in series [2] and in series [3] were below 0.01 µM and 0.01 to 0.1 µM, respectively. Further, in series [4], the half-life at 1 μM fell in the range of 15 to 60 min.
For `O=C(CCCCOc1cc(C(=O)Nc2c(Cl)cncc2Cl)ccc1OC(F)F)OCCN1CCCC1` [Compound 8], in that order: above 100 µM, 7.5 ×10⁻⁶ cm/s, below 0.01 µM, 0.01 to 0.1 µM and below 15 min.
In turn, `CN(C)CCOC(=O)CCCCOc1cc(C(=O)Nc2c(Cl)cncc2Cl)ccc1OC(F)F` [Compound 9] displayed a solubility at 24 h in series [1] of 10 to 100 µM (≈ 5.2 to 52 µg/mL). In series [5], this molecule came in with a Papp at 5 h, 10 μM of 3 ×10⁻⁶ cm/s. Moreover, the IC50 in series [2] and in series [3] was 0.01 to 0.1 µM throughout. Also, the half-life at 1 μM in series [4] was below 15 min.
In turn, `O=C(CCCCOc1cc(C(=O)Nc2c(Cl)cncc2Cl)ccc1OC(F)F)NCCSC1CCOC1=O` (stereo not shown) [Compound 10] displayed a solubility at 24 h in series [1] above 100 µM. In series [5], the Papp at 5 h, 10 μM turned out to be 3.7 ×10⁻⁶ cm/s. For the same molecule, the IC50 in series [2] and in series [3] was below 0.01 µM each time. In series [4], this molecule returned a half-life at 1 μM below 15 min.
Consider `O=C(Nc1c(Cl)cncc1Cl)c1ccc(OC(F)F)c(OCCCSC2CCOC2=O)c1` (stereo not shown) [Compound 13], for which the solubility at 24 h in series [1] was 10 to 100 µM (≈ 5.07 to 50.7 µg/mL). Also, in series [5] (10 μM in 10 mM PBS pH=7.4, 2% DMSO, 5 hours, room temperature), the “Papp (Pampa; 10^−6 cm/s)” value is given as 6.6 10^−6 cm/s. The IC50 in series [2] and in series [3] was below 0.01 µM each time. In addition, the half-life at 1 μM in series [4] was below 15 min.
The molecule `COC(=O)CNCCCOc1cc(C(=O)Nc2c(Cl)cncc2Cl)ccc1OC(F)F` [Compound 15] gave a solubility at 24 h in series [1] above 100 µM. This molecule showed a Papp at 5 h, 10 μM in series [5] of 5.6 ×10⁻⁶ cm/s. The IC50 in series [2] and in series [3] was 0.01 to 0.1 µM in each case. The half-life at 1 μM in series [6] was in the range of 60 to 120 min; in series [4] it was 15 to 60 min.
In turn, `COC(=O)Cc1cccc(NCCCOc2cc(C(=O)Nc3c(Cl)cncc3Cl)ccc2OC(F)F)c1` [Compound 16] yielded a solubility at 24 h in series [1] below 10 µM. For the same molecule, the IC50 in series [2] is below 0.01 µM; in series [3] it was 0.01 to 0.1 µM. The same molecule had a half-life at 1 μM in series [4] below 15 min.
Consider `COC(=O)c1cccc(SCCCOc2cc(C(=O)Nc3c(Cl)cncc3Cl)ccc2OC(F)F)c1` [Compound 17], for which the solubility at 24 h in series [1] was below 10 µM. The IC50 in series [2] and in series [3] was 0.1 to 0.5 µM each time.
As to `COC(=O)c1ccc(SCCCOc2cc(C(=O)Nc3c(Cl)cncc3Cl)ccc2OC(F)F)cc1` [Compound 18], the IC50 in series [2] and in series [3] was 0.1 to 0.5 µM in each case.
Molecule `COC(=O)c1ccc(Oc2cc(C(=O)Nc3c(Cl)cncc3Cl)ccc2OC(F)F)cc1` [Compound 21, Methyl 4-(5-((3,5-dichloropyridin-4-yl)carbamoyl)-2-(difluoromethoxy)phenoxy)benzoate] gave a solubility at 24 h in series [1] of 10 to 100 µM (≈ 4.83 to 48.3 µg/mL). The IC50 in series [2] was 0.01 to 0.1 µM; in series [3], above 0.5 µM. Also, the half-life at 1 μM in series [6] is above 120 min.
Turning to `CCOC(=O)c1cccc(Oc2cc(C(=O)Nc3c(Cl)cncc3Cl)ccc2OC(F)F)c1` [Compound 22, Ethyl 3-(5-((3,5-dichloropyridin-4-yl)carbamoyl)-2-(difluoromethoxy)phenoxy)benzoate], the figures for the IC50 in series [2] and in series [3] were 0.01 to 0.1 µM and 0.1 to 0.5 µM, respectively.
On the same counts, the results for `O=C(Nc1c(Cl)cncc1Cl)c1ccc(OC(F)F)c(OCCCSc2cccc(C(=O)OCCO)c2)c1` [Compound 23] are 0.01 to 0.1 µM and 0.01 to 0.1 µM.
On to `CN(C)CCOC(=O)c1cccc(SCCCOc2cc(C(=O)Nc3c(Cl)cncc3Cl)ccc2OC(F)F)c1` [Compound 24], for which the IC50 in series [2] and in series [3] was 0.01 to 0.1 µM each time. For the same molecule, in series [4], the half-life at 1 μM was below 15 min.
On to `O=C(Nc1c(Cl)cncc1Cl)c1ccc(OC(F)F)c(OCCCSc2ccc(C(=O)OCCO)cc2)c1` [Compound 25], for which the IC50 in series [2] and in series [3] was 0.01 to 0.1 µM each time.
Turning to `CN(C)CCOC(=O)c1ccc(SCCCOc2cc(C(=O)Nc3c(Cl)cncc3Cl)ccc2OC(F)F)cc1` [Compound 26], the IC50 in series [2] is 0.01 to 0.1 µM; in series [3], below 0.01 µM. For the same molecule, the half-life at 1 μM in series [4] was below 15 min.
`O=C(Nc1c(Cl)cncc1Cl)c1ccc(OC(F)F)c(Oc2ccc(C(=O)OCCO)cc2)c1` [Compound 27] came in with a Papp at 5 h, 10 μM in series [5] of 2.3 ×10⁻⁶ cm/s. The IC50 in series [2] and in series [3] was 0.01 to 0.1 µM in each case. The molecule also showed a half-life at 1 μM in series [6] above 120 min.
For `CN(C)CCOC(=O)c1ccc(Oc2cc(C(=O)Nc3c(Cl)cncc3Cl)ccc2OC(F)F)cc1` [Compound 28], in series [5], the Papp at 5 h, 10 μM turned out to be 7.9 ×10⁻⁶ cm/s. Besides, the IC50 was 0.01 to 0.1 µM in series [2] and 0.1 to 0.5 µM in series [3]. Moreover, the half-life at 1 μM in series [6] fell in the range of 60 to 120 min; in series [4], 15 to 60 min.
`O=C(Nc1c(Cl)cncc1Cl)c1ccc(OC(F)F)c(Oc2cccc(C(=O)OCCO)c2)c1` [Compound 29]: the Papp at 5 h, 10 μM in series [5] was 5.1 ×10⁻⁶ cm/s. Moreover, the IC50 in series [2] was below 0.01 µM; in series [3] it was 0.01 to 0.1 µM.
Consider `CN(C)CCOC(=O)c1cccc(Oc2cc(C(=O)Nc3c(Cl)cncc3Cl)ccc2OC(F)F)c1` [Compound 30], for which, in series [5], the Papp at 5 h, 10 μM worked out at 5.3 ×10⁻⁶ cm/s. Besides, the IC50 is below 0.01 µM in series [2] and 0.01 to 0.1 µM in series [3]. In series [4], this molecule showed a half-life at 1 μM below 15 min.
Turning to `O=C(Nc1c(Cl)cncc1Cl)c1ccc(OC(F)F)c(OCCCCNC(CCO)C(=O)O)c1` (stereo not shown) [Met1], in series [5], the Papp at 5 h, 10 μM was 0.03 ×10⁻⁶ cm/s. The IC50 in series [2] and in series [3] was 0.1 to 0.5 µM throughout.
On to `O=C(Nc1c(Cl)cncc1Cl)c1ccc(OC(F)F)c(OCCCNC(CCO)C(=O)O)c1` (stereo not shown) [Met2], for which, in series [5], the Papp at 5 h, 10 μM was found to be 0.02 ×10⁻⁶ cm/s. Also, the IC50 in series [2] and in series [3] was above 0.5 µM each time.
`O=C(O)CNCCCOc1cc(C(=O)Nc2c(Cl)cncc2Cl)ccc1OC(F)F` [Met3, 2-[(3-{5-[(3,5-dichloropyridin-4-yl)carbamoyl]-2-(difluoromethoxy)phenoxy}propyl)amino]acetic acid] registered a Papp at 5 h, 10 μM in series [5] of 0.02 ×10⁻⁶ cm/s. Also, the half-maximal inhibitory concentration (IC50) in series [2] and in series [3] was above 0.5 µM each time.
`O=C(Nc1c(Cl)cncc1Cl)c1ccc(OC(F)F)c(OCC2CC2)c1` [Roflumilast, reference compound] registered a solubility at 24 h in series [1] below 10 µM.
